Structures can show the parent of a compound that is named as a salt. Where two headings read alike, the source gives them in different places.
Assays:
[1] = target: Vacuolar ATPase in human osteoclastoma (hOc) (Homo sapiens, UniProt P27449+Q13488); test: Vacuolar ATPase inhibition in human osteoclastoma (hOc) microsomal fraction; assay type: biochemical; conditions: 30 min, 37° C.
Description: 1.1 Determination of Vacuolar ATpase Inhibition in Human Osteoclastoma (hOc)
Osteoclast-like giant cells isolated from human osteoclastoma are homogenized using a glass-teflon homogeniser (1000 rpm) and the material is centrifuged for 20 minutes at 6000 g. The resultant pellet is resuspended and centrifuged at 100000 g for 60 minutes to sediment the microsomal fraction. The resultant pellet is resuspended in medium at pH 7.4 and stored under liquid nitrogen.
(§1) Inhibition of bafilomycin sensitive ATPase activity is assayed by measuring the release of inorganic phosphate during 30 minutes of incubation, at 37° C., of the human osteoclastoma microsomal fraction in 96-well plates. The reaction medium contains 1 mM ATP, 10 mM Hepes-Tris buffer pH 8, 50 mM KCl, 5 μM valinomycin, 5 μM nigericin, 1 mM CDTA-Tris, 100 μM ammonium molybdate, 0.2 M sucrose and the microsomal fraction (20 μg protein/ml). The reaction is initiated by adding MgSO4 and terminated, after 30 minutes, by adding 4 volumes of the reagent malachite green, prepared according to Chan K., Anal. Biochem. 157, 375-380, 1986.

HT29 cells [2] = test: Antiproliferative activity, 72 h treatment, SRB assay, HT29; assay type: cell-based, human
Description: (§2) HT29 and HT29/Mit (line obtained by prolonged exposure to mitoxantrone, and characterised by overexpression of BCRP, which confers cross resistance to topotecan, irinotecan and to its metabolite SN38): maintained in McCoy 5A medium+10% FCS.
(§3) 2.2 Scheme of the Antiproliferative Activity Experiment (Treatment Time: 72 Hours)
(§4) The cells (HT29 and HT29/Mit: 40,000 cells/ml, LoVo, LoVo/Dx and HCT116: 50,000 cells/ml) are seeded in 100 μl of the respective culture media in 96-well plates. 24 hours after seeding, an aliquot (10 μl) of drug at the various concentrations is added. In the samples in which the effect of the combination of two compounds is to be tested the inhibitor is added immediately before the cytotoxic. For each dose or combination of doses/drugs the effect of the treatment is determined in 4-8 replicates.
(§5) After 72 hours of treatment the antiproliferative effect is evaluated using the sulforhodamine B (SRB) assay: the cells are fixed by adding 25 μl of 50% TCA to each well and left for 1 hour at 4° C. After washing them with water and allowing them to dry, 100 μl of 0.4% SRB in 1% acetic acid are added and left for 30 minutes at room temperature. After 4 washes in 1% acetic acid, they are left to dry then the dye fixed by the proteins is dissolved under basic conditions with 100 μl 10 mM cold Tris and the solution is read using a spectrophotometer at 550 nm.
(§6) Percentage cell growth is calculated as the optical density of treated samples compared to the optical density of controls (untreated cells).

HepG2 cells = test: Antiproliferative activity, 48 h treatment, ATPlite luminescence assay, HepG2; assay type: cell-based, human; conditions: HepG2, 48 h treatment, read-out: Antiproliferative activity (IC50 ± S.D.) HepG2 48 h treatment
Description: HepG2: maintained in EMEM medium+10% FCS.
2.3 Scheme of the Antiproliferative Activity Experiment (Treatment Time: 48 Hours)
The cells (concentration: 30,000 cells/ml) are seeded in 90 μl of the respective culture media in 96-well plates. 24 hours after seeding, an aliquot (10 μl) of the drug at the various concentrations is added (for each concentration there are 3 replicates). After 48 hours of treatment the antiproliferative effect is evaluated with a luminescence assay (Perkin Elmer Life Sciences ATPlite):
50 μl of a lysis solution are added to each well followed by an equal volume of a solution containing luciferase and D-luciferin. The ATP present in all the metabolically active cells brings about the transformation reaction of D-luciferin, catalysed by luciferase, to produce a luminescent signal as described in the following scheme: ATP+D-luciferin+O2→Oxyluciferin+AMP+PP1+CO2+Light
The luminescence produced (expressed in counts per second, CPS) is measured by means of a microplate scintillation analyzer (Perkin Elmer Life Sciences Top Count).
Percentage inhibition of luminescence in the treated cells compared to the control is calculated; concentration-response curves are then analysed using Grafit v.5.0.

HT29/Mit cells [3] = test: Antiproliferative activity, 72 h treatment, SRB assay, HT29/Mit resistant line; assay type: cell-based, human
Description: as §2, §3, §4, §5, §6

[4] = target: Vacuolar ATPase in bovine chromaffin cells membranes (BCG) (Bos taurus, UniProt P23956+Q29466); test: Vacuolar ATPase inhibition in bovine chromaffin cells membranes (BCG); assay type: biochemical; conditions: read-out: ATPase activity (IC50) BCG; bovine chromaffin cell membranes
Description: as §1
1.2 Determination of Vacuolar ATpase Inhibition in the Bovine Chromaffin Cells Membranes (BCG)
About 20 adrenal glands (Cidon S., J. Biol. Chem. 258, 2892-2898, 1983) are removed from healthy bovines; the medulla is quickly separated from the cortex, which is discarded. The medulla is homogenised at 4° C. with a suitable medium at pH 7.5, then filtered. The remaining solid material is further homogenised, filtered and recombined with the preceding filtrate, resuspended and centrifuged at 1000 g for 15 minutes; the supernatant obtained is centrifuged at 10000 g for 20 minutes. The resultant pellet is resuspended and stratified through a sucrose gradient formed of a lower part of 15 ml 1.5 M sucrose and an upper part of 10 ml 1.2 M sucrose. After overnight centrifugation at 4° C. with a SW28 rotor at 20000 rpm, the chromaffiln cells sediment into a pellet. This latter is resuspended, centrifuged at 3000 g for 10 minutes, and the supernatant obtained is centrifuged at 200000 g for 60 minutes. The pellet is then resuspended in 4 ml of a suitable medium containing 0.2 μg/ml pepstatin A and 0.4 μg/ml leupeptin and stored under liquid nitrogen.
The method for ATPase inhibition assay is the same as that followed for the osteoclastoma.

HT29 cells [5] = test: Co-treatment with topotecan, HT29 cells (Combination Index according to Kern); assay type: cell-based, human; conditions: HT29 cells
Description: as §4, §5, §6
(§7) The Combination Index (C.I.) was determined according to Kern's method, 1988 (who continued from Drewinko B, 1976) (Kem D. H., Cancer Res. 48, 117-121, 1988; Drewinko B., Cancer Biochem. Biophys. 1, 187-195, 1976) by means of the following formula: […], where SFa and SFb are the fractions of cells surviving to treatment with compound a and b, respectively; SFab is the fraction surviving to the combination of compounds a and b. If the result is =1, the interaction between the two compounds is additive; if it is >1, the interaction between the two compounds is synergistic; if it is <1, the interaction between the two compounds is antagonistic.

HT29/Mit cells [6] = test: Co-treatment with topotecan, HT29/Mit resistant cells (Combination Index according to Kern); assay type: cell-based, human; conditions: HT29/Mit cells
Description: as §4, §5, §6, §7

[7] = system: HT29/Mit human colon carcinoma xenografts; test: HT29/Mit human colon carcinoma xenograft, antitumor activity; assay type: in vivo, athymic Swiss nude mice
Source text: 1.1 Model of HT29/Mit human colon carcinoma xenografts-Antitumor activity Female athymic Swiss nude mice (8-10 weeks old) (Charles River, Calco, Italy) were used for the experiments. The animals were maintained at constant temperature and humidity, and were allowed to eat and drink freely. The experimental protocol was approved by the Ethics Committee for Animal Experimentation of the Istituto Nazionale Tumori of Milan. The antitumour effectiveness of the compounds of the invention under discussion was tested on athymic mouse models implanted with HT29 and/or HT29/Mit tumour cells: this latter variety is highly resistant to topotecan treatment. The tumour cells were implanted in vivo via subcutaneous injection of 10^7 cells taken from in vitro cultures. Randomized groups of five mice with bilateral subcutaneous tumours were used for the experiment. Topotecan or other known antitumour agents (dissolved in distilled water or an appropriate solvent) and the compounds of the invention (dissolved in Cremophor EL: ethanol: saline solution in the proportions 5:5:90, or in an appropriate solvent) were administered orally from the third day, alone or in combination, in agreement with a treatment scheme selected in an appropriate manner depending on the type of compound to be studied. The weight (or volume) of the tumour in treated mice compared to controls is represented graphically on the y-axis against time (x-axis).

[8] = HT-29, 72 h treatment, read-out: Antiproliferative activity (IC50 ± S.D.) HT-29 72 h treatment
[9] = Homo sapiens, HT-29, 72 h treatment, read-out: Antiproliferative activity (IC50 ± S.D.) HT-29 72 h treatment
[10] = Homo sapiens, HT-29/Mit resistant line, 72 h treatment, read-out: Antiproliferative activity (IC50 ± S.D.) HT-29/Mit
[11] = Homo sapiens, HT-29, HT29, after 72 hours of treatment, range stated for the group, read-out: IC50 values in the sensitive line
[12] = Homo sapiens, HT-29, HT29/Mit, after 72 hours of treatment, range stated for the group, read-out: IC50 values in the resistant line

Chain of Vacuolar ATPase in bovine chromaffin cells membranes (BCG) (P23956 whole entry, looked up): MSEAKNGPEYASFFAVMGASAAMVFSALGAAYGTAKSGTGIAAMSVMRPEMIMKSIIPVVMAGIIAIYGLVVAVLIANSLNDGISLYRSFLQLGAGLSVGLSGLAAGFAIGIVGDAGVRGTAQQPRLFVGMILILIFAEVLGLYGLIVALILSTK
Chain of Vacuolar ATPase in bovine chromaffin cells membranes (BCG) (Q29466 whole entry, looked up): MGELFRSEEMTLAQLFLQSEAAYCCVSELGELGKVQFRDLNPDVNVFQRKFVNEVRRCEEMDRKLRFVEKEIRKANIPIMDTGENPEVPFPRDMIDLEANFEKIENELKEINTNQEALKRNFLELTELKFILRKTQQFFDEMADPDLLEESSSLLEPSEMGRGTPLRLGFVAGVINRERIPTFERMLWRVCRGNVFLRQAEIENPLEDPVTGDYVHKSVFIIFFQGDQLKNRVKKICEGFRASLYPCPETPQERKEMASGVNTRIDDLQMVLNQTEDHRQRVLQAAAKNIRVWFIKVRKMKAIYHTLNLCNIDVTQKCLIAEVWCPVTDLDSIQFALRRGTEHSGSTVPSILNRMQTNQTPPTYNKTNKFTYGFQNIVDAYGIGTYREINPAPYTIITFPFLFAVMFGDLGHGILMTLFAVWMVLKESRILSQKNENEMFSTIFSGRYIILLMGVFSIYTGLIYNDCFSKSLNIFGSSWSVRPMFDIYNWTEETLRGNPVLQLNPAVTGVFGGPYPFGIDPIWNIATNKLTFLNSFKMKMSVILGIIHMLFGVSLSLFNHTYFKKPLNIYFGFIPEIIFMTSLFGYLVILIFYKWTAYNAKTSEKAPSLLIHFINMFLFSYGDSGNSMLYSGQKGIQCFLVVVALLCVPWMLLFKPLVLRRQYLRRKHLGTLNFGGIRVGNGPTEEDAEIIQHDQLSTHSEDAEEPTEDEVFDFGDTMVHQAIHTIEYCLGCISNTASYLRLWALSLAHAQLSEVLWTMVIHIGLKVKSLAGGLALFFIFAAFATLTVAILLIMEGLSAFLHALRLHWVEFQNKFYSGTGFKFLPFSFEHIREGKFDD
Chain of Vacuolar ATPase in human osteoclastoma (hOc) (P27449 whole entry, looked up): as the sequence (P23956 whole entry, looked up) above, with A4S, N6S, M51Q, G83D, R88K counted along it
Chain of Vacuolar ATPase in human osteoclastoma (hOc) (Q13488 whole entry, looked up): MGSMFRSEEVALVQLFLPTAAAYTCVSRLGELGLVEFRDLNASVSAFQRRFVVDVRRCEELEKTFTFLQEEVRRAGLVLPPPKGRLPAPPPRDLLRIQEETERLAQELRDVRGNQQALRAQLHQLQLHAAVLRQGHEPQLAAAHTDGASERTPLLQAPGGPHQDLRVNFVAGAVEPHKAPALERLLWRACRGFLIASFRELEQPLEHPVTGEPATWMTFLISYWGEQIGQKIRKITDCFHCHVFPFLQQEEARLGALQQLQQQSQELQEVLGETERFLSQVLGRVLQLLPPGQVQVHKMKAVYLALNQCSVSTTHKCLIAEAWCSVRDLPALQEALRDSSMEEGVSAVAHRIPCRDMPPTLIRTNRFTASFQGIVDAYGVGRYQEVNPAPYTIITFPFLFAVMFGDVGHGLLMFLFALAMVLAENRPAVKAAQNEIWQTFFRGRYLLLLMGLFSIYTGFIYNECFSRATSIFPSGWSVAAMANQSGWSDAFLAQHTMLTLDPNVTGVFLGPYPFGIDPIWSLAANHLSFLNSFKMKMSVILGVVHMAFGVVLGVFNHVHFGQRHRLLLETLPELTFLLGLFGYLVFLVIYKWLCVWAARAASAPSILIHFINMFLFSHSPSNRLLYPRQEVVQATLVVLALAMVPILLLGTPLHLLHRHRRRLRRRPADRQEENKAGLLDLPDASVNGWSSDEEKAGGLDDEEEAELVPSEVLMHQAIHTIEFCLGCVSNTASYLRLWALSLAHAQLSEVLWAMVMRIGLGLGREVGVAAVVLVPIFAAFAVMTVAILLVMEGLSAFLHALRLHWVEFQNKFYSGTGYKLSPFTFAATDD

SMILES	IC50 (HT29 cells [2]; [9]) [nM]	IC50 (HT29/Mit cells [3]; [10]) [nM]	IC50 (HT29 cells [2]; [11]) [nM]	IC50 (HT29/Mit cells [3]; [12]) [nM]	IC50 [4] [nM]	further results
CO/C1=C\C(C)=C\[C@@H](C)[C@@H](O)[C@@H](C)C/C(C)=C/C=C/[C@H](OC)[C@@H]([C@@H](C)[C@@H](O)[C@H](C)[C@@]2(O)C[C@@H](O)[C@H](C)[C@@H](C(C)C)O2)OC1=O [Bafilomycin A1, reference compound]						IC50 [1]: 0.1 nM; IC50 (HT29 cells [2]; [8]): 3 ± 2 nM; IC50 (HepG2 cells): < 6 nM; IC50 (HT29/Mit cells [3]; HT-29/Mit resistant line, 72 h treatment, read-out: Antiproliferative activity (IC50 ± S.D.) HT-29/Mit): 5 nM
N.N.[Cl][Pt][Cl] [Cisplatin, reference compound]						IC50 (HT29 cells [2]; [8]): 6800 nM; IC50 (HepG2 cells): > 25000 nM
COC(=O)c1[nH]c2cc(OC)c(OC)cc2c1-c1ccc(OC)c(OC)c1 [Example 2, -3-(3,4-Dimethoxyphenyl)-5,6-dimethoxy-1H-indole-2-carboxylic acid methyl ester]	35200 ± 5200	15200 ± 300				IC50 (HepG2 cells; Homo sapiens): 25500 ± 4500 nM
COC(=O)c1[nH]c2cc(OC)c(OC)cc2c1-c1ccccc1 [Example 3, 5,6-Dimethoxy-3-phenyl-1H-indole-2-carboxylic acid methyl ester]	37300	150	5000 to 42000	100 to 3000	628	
CCOC(=O)c1[nH]c2cc(OC)c(OC)cc2c1-c1ccccc1 [Example 4, 5,6-Dimethoxy-3-phenyl-1H-indole-2-carboxylic acid ethyl ester]	37300	< 100	5000 to 42000	100 to 3000	350	
COC(=O)c1c(-c2ccc(OC)cc2)c2cc(OC)c(OC)cc2n1CCO [Example 12, 1-(2-Hydroxyethyl)-5,6-dimethoxy-3-(4-methoxyphenyl)-1H-indole-2-carboxylic acid methyl ester]	4600	660 ± 300	5000 to 42000	100 to 3000	247	effect in combination with topotecan (HT29 cells [5]): synergistic effects; effect in combination with topotecan (HT29/Mit cells [6]): synergistic effects
COc1ccc(-c2c(C#N)[nH]c3cc(OC)c(OC)cc23)cc1 [Example 17, 5,6-dimethoxy-3-(4-methoxyphenyl)-1H-indole-2-carbonitrile]	4900 ± 500	2500			273	
COc1ccc(-c2c(C#N)n(CCN(C)C)c3cc(OC)c(OC)cc23)cc1 [Example 18, 1-(2-Dimethylaminoethyl)-5,6-dimethoxy-3-(4-methoxyphenyl)-1H-indole-2-carbonitrile hydrochloride]	16700	150	5000 to 42000	100 to 3000	567	
COc1ccc(-c2c(-c3ncn[nH]3)[nH]c3cc(OC)c(OC)cc23)cc1 [Example 23, 5,6-Dimethoxy-3-(4-methoxyphenyl)-2-(2H-[1,2,4]triazol-3-yl)-1H-indole]	41900	2300	5000 to 42000	100 to 3000	470	effect in combination with topotecan (HT29 cells [5]): synergistic effects; effect in combination with topotecan (HT29/Mit cells [6]): synergistic effects
COc1ccc(-c2c(-c3nnco3)[nH]c3cc(OC)c(OC)cc23)cc1 [Example 26, 5,6-Dimethoxy-3-(4-methoxyphenyl)-2-[1,3,4]oxadiazol-2-yl-1H-indole]	40300	2700	5000 to 42000	100 to 3000	710	effect in combination with topotecan (HT29 cells [5]): synergistic effects; effect in combination with topotecan (HT29/Mit cells [6]): synergistic effects
COc1ccc(-c2c3n(c4cc(OC)c(OC)cc24)CCNC3=O)cc1 [Example 27, 7,8-Dimethoxy-10-(4-methoxyphenyl)-3,4-dihydro-2H-pyrazino[1,2-a]indol-1-one]	5200	2900			248	
COc1ccc(-c2c3n(c4cc(OC)c(OC)cc24)CCNC3)cc1 [Example 28, 7,8-Dimethoxy-10-(4-methoxyphenyl)-1,2,3,4-tetrahydro-pyrazino[1,2-a]indole hydrochloride]	37300	530	5000 to 42000	100 to 3000	1270	
CC[C@@]1(O)C(=O)OCc2c1cc1n(c2=O)Cc2cc3c(CN(C)C)c(O)ccc3nc2-1 [Topotecan, reference compound]	70 ± 10	50600				tumor growth inhibition ([7]; 1 mg/kg p.o.): 62%; tumor growth inhibition ([7]; 2 mg/kg p.o.): 80%

— US20070248672A1, “Indole and Azaindole Derivatives with Antitumor Action” (priority 2004, published 2007)
